Laboratory results as given in US20180071354A1, “SELECTIVE BREEDING METHOD OF ANTITUMOR/ANTICANCER CAMELLIA SINENSIS STRAIN, AND TEA PRODUCT OF SUCH STRAIN” (FUJIAN AGRICULTURE AND FORESTRY UNIVERSITY, priority 2015, published 2018).

How the values were obtained:
Format in all cases: cell-based
Conditions in all cases: 48 h
[1] = system: human colon cancer cell line HCT-116; assay: In vitro antitumor/anticancer testing (CCK-8), HCT-116
Procedure: (§1) Each of Tea Product 1 and Conventional Tea Product obtained in section A of this example was used to prepare test tea samples according to the method described below. A proper amount of the respective tea product was added into sterile water to prepare a stock solution with a concentration of 100 mg/mL, followed by using a membrane filter with a pore size of 0.22 μm to conduct vacuum filtration and sterilization. The resulting stock solution was diluted with a respective complete medium shown in Table 3 below to form test tea samples with different concentrations. In other words, the thus obtained test tea samples to be used for treating a respective cancer/tumor cell line shown in Table 3 were prepared using the same complete medium as that for the respective cancer/tumor cell line. […] Specifically, each of the aforesaid commercially available agents was subjected to the method described below to prepare comparative test samples. A proper amount of a respective commercially available agent was dissolved in phosphate-buffered saline (PBS) to prepare a stock solution with a concentration of 5 mg/mL, followed by using a membrane filter with a pore size of 0.22 μm to conduct vacuum filtration and sterilization. The resulting stock solution was diluted with a respective complete medium shown in Table 3 below to form comparative test samples with different concentrations. To be specific, the comparative test samples prepared from the respective commercially available agent have the concentrations shown in Table 2 below. The thus obtained comparative test samples to be used for treating a respective cancer/tumor cell line shown in Table 3 were prepared using the same complete medium as that for the respective cancer/tumor cell line. […] The cultivation of each cancer/tumor cell line is described as follows. […] Afterwards, a cell suspension having a cell density of 1.0×10^4 cells/mL was prepared. […] As experimental groups, the tumor/cancer cells of each cell line were treated with the test tea samples prepared from one or more of the tea products and the comparative test samples prepared from one or more of the commercially available agents as obtained in section B of this example (for more detailed information about the tea product(s) and the commercially available product (s) used to treat each cell line, please see Table 4 below). To be specific, 6 to 10 test tea samples prepared from the same tea product and having different concentrations, as well as 6 to 10 comparative test samples prepared from the same commercially available agent and having different concentrations, were utilized to treat the tumor/cancer cells of each cell line. For each experimental group, 6 repetitions of tumor/cancer treatment were performed. For the control group, 100 μL of PBS was added to a well containing the medium and the cancer/tumor cells of the respective cell line. For the blank group, 100 μL of PBS was added to a well containing a complete medium the same as that used for cultivation of the cancer/tumor cells of the respective cell line. After the treatment described above, cultivation was conducted in an incubator (37° C., 100% relative humidity, 5% CO2) for 48 hours. Subsequently, the liquid containing the medium and the sample in the well was removed, and a respective complete medium (shown in Table 3 above) containing 10% CCK-8 (Cell Counting Kit-8)(Dojindo Molecular Technologies, Inc., Cat. No. CK04-13) was added. Cultivation was performed in an incubator (37° C.) for 2 to 4 hours, followed by gently shaking.

[2] = system: human squamous cell carcinoma cell line A431; assay: In vitro antitumor/anticancer testing (CCK-8), A431
Procedure: as §1

[3] = system: human gastric cancer cell line SMMC-7721; assay: In vitro antitumor/anticancer testing (CCK-8), SMMC-7721
Procedure: as §1

[4] = system: human gastric cancer cell line BGC-823; assay: In vitro antitumor/anticancer testing (CCK-8), BGC-823
Procedure: as §1

`O=C(O[C@@H]1Cc2c(O)cc(O)cc2O[C@@H]1c1cc(O)c(O)c(O)c1)c1cc(O)c(O)c(O)c1` [EGCG monomer, epigallocatechin gallate] showed a Percent growth inhibition ([1]; 2.5 μg/mL) of 10.74%, a Percent growth inhibition ([1]; 5 μg/mL) of −7.91% and a Percent growth inhibition ([1]; 10 μg/mL) of −4.12%. It also gave a Percent growth inhibition ([1]; 20 μg/mL) of −1.58%, a Percent growth inhibition ([1]; 40 μg/mL) of 34.52% and a Percent growth inhibition ([1]; 80 μg/mL) of 66.98%. The IC50 ([1]; HCT-116) was “IC50 (μg/mL) = 55.72”, the Percent growth inhibition ([2]; 0.3125 μg/mL) was 7.79% and the Percent growth inhibition ([2]; 0.625 μg/mL) was 13.31%. The Percent growth inhibition ([2]; 1.25 μg/mL) was 10.00%, the Percent growth inhibition ([2]; 2.5 μg/mL) was 12.70% and the Percent growth inhibition ([2]; 5 μg/mL) was 19.18%. It also gave a Percent growth inhibition ([2]; 10 μg/mL) of 24.03%, a Percent growth inhibition ([2]; 20 μg/mL) of 34.07% and a Percent growth inhibition ([2]; 40 μg/mL) of 55.14%. The Percent growth inhibition ([2]; 80 μg/mL) was 30.13%, the IC50 ([2]; A431) was “IC50 (μg/mL) = 29.51” and the Percent growth inhibition ([3]; 2.5 μg/mL) was 4.93%. The Percent growth inhibition ([3]; 5 μg/mL) was 3.31%, the Percent growth inhibition ([3]; 10 μg/mL) was 3.45% and the Percent growth inhibition ([3]; 20 μg/mL) was 1.33%. It also gave a Percent growth inhibition ([3]; 40 μg/mL) of 6.33%, a Percent growth inhibition ([3]; 80 μg/mL) of 40.85% and a Percent growth inhibition ([3]; 160 μg/mL) of 92.58%. It also gave a Percent growth inhibition ([3]; 320 μg/mL) of 98.50%, a Percent growth inhibition ([3]; 640 μg/mL) of 97.44% and a Percent growth inhibition ([4]; 2.5 μg/mL) of −0.82%. For the same compound, the Percent growth inhibition ([4]; 5 μg/mL) was −1.06%, the Percent growth inhibition ([4]; 10 μg/mL) was −0.64% and the Percent growth inhibition ([4]; 20 μg/mL) was 6.47%. The Percent growth inhibition ([4]; 40 μg/mL) was 28.02%, the Percent growth inhibition ([4]; 80 μg/mL) was 60.53% and the Percent growth inhibition ([4]; 160 μg/mL) was 97.87%. The Percent growth inhibition ([4]; 320 μg/mL) was 98.16%, the Percent growth inhibition ([4]; 640 μg/mL) was 97.03% and the IC50 ([4]; BGC-823) was “IC50 (μg/mL) = 62.94”.
